The values that follow come from patent US20250026741A1, “INHIBITORS OF THE ONCOGENIC SHP2 PHOSPHATASE AND USES THEREOF” (Sanford Burnham Prebys Medical Discovery Institute, priority 2021, published 2025).

Assay [1] has as its target SHP2 catalytic domain (SHP2cat; residues 248-527) (Homo sapiens (Human), UniProt Q06124). The assay is described as follows: DiFMUP fluorescence intensity phosphatase inhibition assay, SHP2cat. Type of assay: biochemical. From the text:
To test the synthesized compounds for their potential to inhibit SHP2 activity, a fluorescence intensity-based assay using 6,8-difluoro-4-methylumbelliferyl phosphate (DiFMUP) as the substrate was adapted for three recombinant SHP2 constructs: 1) the SHP2 catalytic domain (SHP2cat; residues 248-527), 2) the full-length SHP2-E76K oncogenic mutant, and 3) the full-length SHP2 wild-type (SHP2-WT). The recombinant SHP2 proteins were expressed and purified. A dually phosphorylated peptide derived from the insulin receptor substrate 1 (IRS-1) served as a surrogate binding protein and was used to activate SHP2-WT. […] Michaelis-Menten experiments to determine the DiFMUP Michaelis-Menten constant (Kmn) for each SHP2 construct were performed and yielded the following values: SHP2-WT, Km=60 μM; SHP2-E76K, Km=20 μM; SHP2cat, Km=20 μM. Relative maximum rates (Vmax) of the DiFMUP reactions were as follows: SHP2-WT, Vmax=871 AFU/min; SHP2-E76K, Vmax, =2730 AFU/min; SHP2cat, Vmax=2912 AFU/min. IC50 values for each compound were determined from initial rates in 10-point dose-response assays using DiFMUP at a concentration corresponding to its Km value for the respective SHP2 construct.
(§1) SHP2 inhibitors were tested at room temperature (RT) in a 384-well plate format standard phosphatase fluorescence intensity assay using DiFMUP (Invitrogen/Thermo Fisher Scientific, Carlsbad, CA) as a substrate and a total reaction volume of 25 μL. SHP2 inhibitors or vehicle (DMSO) were spotted in triplicate into a black Greiner FLUOTRAC™ 200 384-well microplate (#781076, Greiner) for a 10-point dose-response assay using an Echo®555 Liquid Handler (Labcyte, Inc., San Jose, CA). PTP working solutions were prepared at a 0.625 nM concentration (for a final concentration of 0.5 nM) in buffer containing 50 mM Bis-Tris pH 6.0, 50 mM NaCl, 5 mM DTT, and 0.01% Tween® 20. Prior to the assay, a dually phosphorylated insulin receptor substrate 1 (IRS-1) peptide [625 nM (500 nMfinal) (30)] was added to full-length WT SHP2 working solutions and incubated for 20 min. DiFMUP working solutions at 5× final concentration were prepared in 50 mM Bis-Tris pH 6.0, 50 mMNaCl, and 0.01% Tween 20. 20 μL of PTP working solution was dispensed into the microplate and incubated with inhibitor for 20 min at RT. […] The reaction was initiated by addition of 5 μL DiFMUP working solutions. Fluorescence intensity was measured in kinetic mode (every minute for 7 or 10 min) using a Tecan Spark® Multimode Microplate Reader (Tecan, Groedig, Austria) with an excitation wavelength of 360 nm and an emission wavelength of 460 nm. The initial rates were determined from the linear progression curves of the PTP reaction. The nonenzymatic hydrolysis of the substrate was corrected by using a control without addition of enzyme. IC50 values were calculated from the corrected initial rates by nonlinear regression using the program GraphPad Prism (GraphPad Software, Inc., San Diego, CA) Version 8. Dose-response inhibition assays of SHP2cat using the substrate OMFP were performed similarly as described above for DiFMUP. OMFP was used at a concentration corresponding to its Km value for SHP2cat (50 μM final). Fluorescence intensity was measured in kinetic mode (every minute for 10 min) using a Tecan Spark Multimode Microplate Reader with an excitation wavelength of 485 nm and an emission wavelength of 535 nm. Initial rates were determined and IC50 vales calculated as described above.

Assay [2] concerns the target striatal-enriched tyrosine phosphatase (STEP) catalytic domain (Homo sapiens (Human), UniProt P54829). The assay can be described thus: DiFMUP phosphatase inhibition assay, STEP. Type of assay: biochemical. The note with it: for pIC50: catalytic domain, DiFMUP at Km (4 μM); for fold selectivity for SHP2 over STEP: from IC50 values against catalytic domains. The method, then:
Selectivity is one of the biggest challenges in PTP inhibitor development. […] Similar to SHP2, we adapted a 384-well plate format DiFMUP assay for recombinant PTP1B and STEP and performed Michaelis-Menten experiments to determine DiFMUP Km values for each phosphatase. IC50 values of our inhibitors for PTP1B and STEP were determined in 10-point dose-response assays with DiFMUP used at the concentration corresponding to the respective Km value. […] Other inhibitors with good relative selectivity for SHP2 included #02 (13-fold selective over PTP1B; 73-fold selective over STEP) and #05 (5-fold selective over PTP1B; >71-fold selective over STEP).
as §1

Another assay concerns the target SHP2cat (Homo sapiens (Human), UniProt Q06124). The assay is described as follows: OMFP fluorescence intensity inhibition assay, SHP2cat. Type of assay: biochemical. The conditions noted are these: OMFP at Km (50 μM); read-out: IC50 against SHP2cat with OMFP. From the text:
We confirmed specific and dose-dependent binding of inhibitors to SHP2 by protein thermal shift, which monitors the thermal stability of a target protein in vitro. […] In addition, we confirmed the inhibitory activity of several furanylbenzamide inhibitors, including the top two compounds #02 and #01, in SHP2cat inhibition assays using the alternative substrate 3-O-methylfluorescein phosphate (OMFP), which features a peak fluorescence emission that is red-shifted by […] compared to DiFMUP. The Km value of OMFP for SHP2cat was determined to be 50 μM. An OMFP fluorescence intensity-based assay was used to perform inhibitor dose-response experiments and determine IC50 values.
SHP2 inhibitors were tested at room temperature (RT) in a 384-well plate format standard phosphatase fluorescence intensity assay using DiFMUP (Invitrogen/Thermo Fisher Scientific, Carlsbad, CA) as a substrate and a total reaction volume of 25 μL. […] Fluorescence intensity was measured in kinetic mode (every minute for 7 or 10 min) using a Tecan Spark® Multimode Microplate Reader (Tecan, Groedig, Austria) with an excitation wavelength of 360 nm and an emission wavelength of 460 nm. The initial rates were determined from the linear progression curves of the PTP reaction. […] Initial rates were determined and IC50 vales calculated as described above.

Assay [3] concerns MLL-AF10 leukemia cells expressing wild-type SHP2. The assay can be described thus: Cell viability assay, MLL-AF10 cells expressing wild-type SHP2. In kind it is cell-based, mouse. The conditions noted are these: Mus musculus. As for the experimental part: (§2) Cell viability assays of SHP099, #01, and #02 against mouse MLL-AF10 leukemia cells were conducted. Two MLL-AF10 cell lines were employed, one expressing wild-type SHP2, and the other expressing E76K mutant SHP2.

In assay [4] the test system is MLL-AF10 leukemia cells expressing E76K mutant SHP2. The assay is described as follows: Cell viability assay, MLL-AF10 cells expressing E76K mutant SHP2. In kind it is cell-based, mouse. The note with it: Mus musculus. As for the experimental part:
as §2

Setting [5] is: DiFMUP at Km (20 μM), read-out: SHP2cat IC50.
The mark [6] stands for this setting: catalytic domain, DiFMUP at Km, read-out: SHP2 IC50.

What is called pIC50 is the negative decadic logarithm of the IC50, by convention in mol/L.

pIC50: −log10 of the molar value. Like-named read-outs stand apart in the source and are kept apart here.

Chain of striatal-enriched tyrosine phosphatase (STEP) catalytic domain (P54829 280-565 limits assumed): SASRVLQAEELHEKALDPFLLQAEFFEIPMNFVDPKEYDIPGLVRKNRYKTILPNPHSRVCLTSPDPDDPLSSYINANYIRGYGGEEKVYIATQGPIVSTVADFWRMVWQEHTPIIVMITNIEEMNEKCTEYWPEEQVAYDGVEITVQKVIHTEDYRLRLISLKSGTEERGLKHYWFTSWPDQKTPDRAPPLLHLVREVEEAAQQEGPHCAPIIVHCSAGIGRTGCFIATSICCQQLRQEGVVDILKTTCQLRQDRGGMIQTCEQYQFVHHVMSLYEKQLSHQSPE
Chain of SHP2 catalytic domain (SHP2cat; residues 248-527) (Q06124 248-527): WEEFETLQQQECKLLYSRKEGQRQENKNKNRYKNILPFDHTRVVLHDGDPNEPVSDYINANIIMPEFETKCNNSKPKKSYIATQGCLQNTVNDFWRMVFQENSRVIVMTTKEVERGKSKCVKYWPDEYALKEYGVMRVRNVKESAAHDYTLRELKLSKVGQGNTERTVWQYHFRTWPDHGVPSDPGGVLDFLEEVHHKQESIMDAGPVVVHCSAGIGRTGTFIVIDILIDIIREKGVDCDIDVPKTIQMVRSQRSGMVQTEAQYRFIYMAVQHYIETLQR
Chain of SHP2cat (Q06124 248-527): as above

On to `N#Cc1cc(-c2ccc(/C=C3\Sc4ccccc4C3=O)o2)ccc1O` [#05, (Z)-2-Hydroxy-5-(5-((3-oxobenzo[b]thiophen-2(3H)-ylidene)methyl)furan-2-yl)benzonitrile], for which the figures for the pIC50 in assay [1] (setting [5]), in assay [1] (setting [6]) and in assay [2] were 4.70 to 6.00, 5.85 and under 4.00, respectively.
As to `Nc1ccc(NC(=O)c2cc(-c3ccc(/C=C4\Sc5ccccc5C4=O)o3)ccc2O)cc1` [#01, (Z)—N-(4-Aminophenyl)-2-hydroxy-5-(5-((3-oxobenzo[b]thiophen-2(3H)-ylidene)methyl)furan-2-yl)benzamide], the pIC50 in assay [1] (setting [5]) was at least 6.00; in assay [1] (setting [6]) it was 6.66; in assay [2], 4.36; at SHP2cat, 5.92; in assay [3], 6.04; in assay [4] it was 5.70. In addition, in assay [2], the “fold selectivity for SHP2 over STEP” value is 200 fold.
As for `O=C(Nc1ccccc1)c1cc(-c2ccc(/C=C3\Sc4ccccc4C3=O)o2)ccc1O` [#02, (Z)-2-hydroxy-5-(5-((3-oxobenzo[b]thiophen-2(3H)-ylidene)methyl)furan-2-yl)-N-phenylbenzamide], the pIC50 in assay [1] (setting [5]) is at least 6.00; in assay [1] (setting [6]) it was 6.14; in assay [2], 4.28; at SHP2cat, 6.36; in assay [3] it was 5.70; in assay [4], 5.52. Besides, the “fold selectivity for SHP2 over STEP” value in assay [2] is listed as 73 fold.
